Measurements taken from patent US7348334B2, “Monocyclic derivatives of aryl alkanoic acids and their use in medicine: process for their preparation and pharmaceutical compositions containing them” (Dr. Reddy's Laboratories Limited, priority 2001, dated 2008).
Where a name gives a salt, the structure may show the parent alone.

Columns and labels:
hPPARα = target: T1, hPPARα (Homo sapiens, UniProt Q07869); assay: Determination of hPPARα activity (GAL4 fusion luciferase reporter in HEK-293 cells); format: cell-based; details: compound at 50 μM
T1 construct: expressed in transfected cells; host or cells: HEK-293
T1 sequence (Q07869 239-466 limits assumed): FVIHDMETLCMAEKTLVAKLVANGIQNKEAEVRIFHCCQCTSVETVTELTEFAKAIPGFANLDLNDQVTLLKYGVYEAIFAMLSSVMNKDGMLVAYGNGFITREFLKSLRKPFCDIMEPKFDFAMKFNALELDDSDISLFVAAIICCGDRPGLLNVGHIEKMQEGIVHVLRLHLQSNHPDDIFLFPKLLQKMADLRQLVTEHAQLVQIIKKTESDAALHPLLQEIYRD
Method: a) Determination of hPPARα Activity:
Ligand binding domain of hPPARα was fused to DNA binding domain of Yeast transcription factor GAL4 in eucaryotic expression vector. Using superfect (Qiagen, Germany) as transfecting reagent HEK-293 cells were transfected with this plasmid and a reporter plasmid harboring the luciferase gene driven by a GAL4 specific promoter. Compound was added at different concentrations after 42 hrs of transfection and incubated overnight. Luciferase activity as a function of compound binding/activation capacity of PPARα was measured using Packard Luclite kit (Packard, USA) in Top Count (Ivan Sadowski, Brendan Bell, Peter Broag and Melvyn Hollis. Gene. 1992. 118: 137-141; Superfect Transfection Reagent Handbook. February 1997. Qiagen, Germany).

hPPARγ1 = target: T2, hPPARγ1 (Homo sapiens, UniProt P37231); assay: Determination of hPPARγ activity (GAL4 fusion luciferase reporter in HEK-293 cells); format: cell-based; details: compound at 1 μM
T2 construct: expressed in transfected cells; host or cells: HEK-293
T2 sequence (P37231 238-503 limits assumed): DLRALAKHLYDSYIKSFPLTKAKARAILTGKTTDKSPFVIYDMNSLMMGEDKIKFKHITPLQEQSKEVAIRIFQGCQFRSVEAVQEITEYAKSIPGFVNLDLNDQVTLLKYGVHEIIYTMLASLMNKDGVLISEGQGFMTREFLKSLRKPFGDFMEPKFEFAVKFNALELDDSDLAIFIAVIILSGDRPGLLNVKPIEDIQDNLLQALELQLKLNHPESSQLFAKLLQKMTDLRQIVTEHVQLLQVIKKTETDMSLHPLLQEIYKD
Method: b) Determination of hPPARγ Activity:
Ligand binding domain of hPPARγ1 was fused to DNA binding domain of Yeast transcription factor GAL4 in eucaryotic expression vector. Using lipofectamine (Gibco BRL, USA) as transfecting reagent HEK-293 cells were transfected with this plasmid and a reporter plasmid harboring the luciferase gene driven by a GAL4 specific promoter. Compound was added at 1 μM concentration after 48 hrs of transfection and incubated overnight.

Swiss albino mice = assay: Plasma triglyceride lowering activity in Swiss albino mice and guinea pigs; format: in vivo, mouse
Method: c) Plasma Triglyceride and Total Cholesterol Lowering Activity in Swiss Albino Mice and Guinea Pigs:
Male Swiss albino mice (SAM) and male Guinea pigs were obtained from NIN and housed in DRF animal house. All these animals were maintained under 12 hour light and dark cycle at 25±1° C. Animals were given standard laboratory chow (NIN, Hyderabad, India) and water, ad libitum. SAM of 20-25 g body weight range and Guinea pigs of 500-700 g body weight range were used (Oliver, P., Plancke, M. O., Marzin, D., Clavey, V., Sauzieres, J and Fruchart, J. C. Effects of fenofibrate, gemfibrozil and nicotinic acid on plasma lipoprotein levels in normal and hyperlipidemic mice. Atherosclerosis, 1988. 70: 107-114).
The test compounds were administered orally to Swiss albino mice at 0.3 to 30 mg/kg/day dose for 6 days. Control mice were treated with vehicle (0.25% Carboxymethylcellulose; dose 10 ml/kg). The test compounds were administered orally to Guinea pigs at 0.3 to 30 mg/kg/day dose for 6 days. Control animals were treated with vehicle (0.25% Carboxymethylcellulose; dose 5 ml/kg).
The blood samples were collected in fed state 1 hour after drug administration on 0 and 6 day of treatment. The blood was collected from the retro-orbital sinus through heparinised capillary in EDTA containing tubes. After centrifugation, plasma sample was separated for triglyceride and total cholesterol (Wieland, O. Methods of Enzymatic analysis. Bergermeyer, H. O., Ed., 1963. 211-214; Trinder, P. Ann. Clin. Biochem. 1969. 6: 24-27). Measurement of plasma triglyceride, total cholesterol and HDL were done using commercial kits (Dr. Reddy's Diagnostic Division, Hyderabad, India).
(§1) 1. Percent reduction in Blood sugar/triglycerides/total cholesterol were calculated according to the formula: […]

C57BL/KsJ-db/db mice = assay: Blood sugar and triglyceride lowering in db/db mice; format: in vivo, mouse; details: 10 mg/kg oral gavage daily for 6 days
From the text: Mutation in colonies of laboratory animals and different sensitivities to dietary regimens have made the development of animal models with non-insulin dependent diabetes and hyperlipidemia associated with obesity and insulin resistance possible. Genetic models such as db/db and ob/ob (Diabetes, (1982) 31(1): 1-6) mice and zucker fa/fa rats have been developed by the various laboratories for understanding the pathophysiology of disease and testing the efficacy of new antidiabetic compounds (Diabetes, (1983) 32: 830-838; Annu. Rep. Sankyo Res. Lab. (1994). 46: 1-57). The homozygous animals, C57 BL/KsJ-db/db mice developed by Jackson Laboratory, US, are obese, hyperglycemic, hyperinsulinemic and insulin resistant (J. Clin. Invest., (1990) 85: 962-967), whereas heterozygous are lean and normoglycemic. In db/db model, mouse progressively develops insulinopenia with age, a feature commonly observed in late stages of human type II diabetes when blood sugar levels are insufficiently controlled. The state of pancreas and its course vary according to the models. Since this model resembles that of type II diabetes mellitus, the compounds of the present invention were tested for blood sugar and triglycerides lowering activities.
[…] C57BL/KsJ-db/db mice of 8 to 14 weeks age, having body weight range of 35 to 60 grams, bred at Dr. Reddy's Research Foundation (DRF) animal house, were used in the experiment. The mice were provided with standard feed (National Institute of Nutrition (NIN), Hyderabad, India) and acidified water, ad libitum. The animals having more than 350 mg/dl blood sugar were used for testing. The number of animals in each group was 4.
Test compounds were suspended on 0.25% carboxymethyl cellulose and administered to test group at a dose of 0.001 mg to 30 mg/kg through oral gavage daily for 6 days. The control group received vehicle (dose 10 ml/kg). On 6th day the blood samples were collected one hour after administration of test compounds/vehicle for assessing the biological activity.
The random blood sugar and triglyceride levels were measured by collecting blood (100 μl) through orbital sinus, using heparinised capillary in tubes containing EDTA which was centrifuged to obtain plasma. The plasma glucose and triglyceride levels were measured spectrometrically, by glucose oxidase and glycerol-3-PO4 oxidase/peroxidase enzyme (Dr. Reddy's Lab. Diagnostic Division Kits, Hyderabad, India) methods respectively.
The blood sugar and triglycerides lowering activities of the test compound was calculated according to the formula.
as §1

| SMILES | melting point [°C] | other results |
| --- | --- | --- |
| CCCCCCC(Oc1ccc(NC(=O)Cn2c(CC)nc(-c3ccccc3)cc2=O)cc1)C(=O)OCC (stereo not drawn) [Example 9] | 140 to 143 |  |
| CCCCCCCN(C(=O)Cn1c(CC)nc(-c2ccccc2)cc1=O)c1ccc(OC(CCC)C(=O)O)cc1 (stereo not drawn) [Example 37] | 48 to 50 |  |
| CCc1nc(-c2ccccc2)cc(=O)n1CC(=O)Nc1ccc(OC(C)(C)C(=O)O)cc1 [Example 29] | 120 |  |
| CCc1nc(-c2ccccc2)cc(=O)n1CC(=O)Nc1ccc(SC(C(=O)O)C(C)C)cc1 (stereo not drawn) [Example 45] | 195 to 200 | PPARα (hPPARα): 7.2; PPARγ (hPPARγ1): 0.8 |
| CCCC(Nc1ccc(OCCn2c(CC)nc(-c3ccccc3)cc2=O)cc1)C(=O)O (stereo not drawn) [Example 39] | 155 to 157 |  |
| CCc1nc(-c2ccccc2)cc(=O)n1CCOc1ccc(NC(C)(C)C(=O)O)cc1 [Example 38] | 168 to 169 |  |
| CCOC(=O)C(C)(C)Oc1ccc(C(=O)NCCn2c(CC)nc(-c3ccccc3)cc2=O)cc1 [Example 2] | 148 to 150 |  |
| CCc1nc(-c2ccccc2)cc(=O)n1CCNc1ccc(SC(C(=O)O)C(C)C)cc1 (stereo not drawn) [Example 48] | 65 to 70 |  |
| CCOC(=O)C(C)(C)Oc1ccc(NC(=O)Cn2c(CC)nc(-c3ccccc3)cc2=O)cc1 [Example 4] | 128 to 130 |  |
| CCc1nc(-c2ccccc2)cc(=O)n1CCOc1ccc(OC(C)(CC)C(=O)O)cc1 (stereo not drawn) [Example 33] | 159 to 161 |  |
| CCc1nc(-c2ccccc2)cc(=O)n1CCOc1ccc(NC(C)C(=O)O)cc1 (stereo not drawn) [Example 34] | 52 |  |
| Cc1cccc(Nc2cc(Cl)nc(SCC(=O)O)n2)c1C [Wy 14643, reference compound] |  | PPARα (hPPARα): 7 |
| CCc1nc(-c2ccccc2)cc(=O)n1CCOc1ccc(NC(C)C(=O)O)cc1 (stereo not drawn) [Example 35] | 192 to 194 | PPARα (hPPARα): 6.2; PPARγ (hPPARγ1): 2.2 |
| CCCCCCCN(C(=O)Cn1c(CC)nc(-c2ccccc2)cc1=O)c1ccc(SC(CC)C(=O)O)cc1 (stereo not drawn) [Example 49, 2-[4-(2-Ethyl-6-oxo-4-phenyl-1,6-dihydropyrimidin-1-ylmethyl(heptyl)carboxamido)phenylsulfanyl}butanoic acid, arginine salt] |  | Triglyceride Lowering (%) (Swiss albino mice; 10 mg/kg orally for 6 days): 69% |
| CCCC(Oc1ccc(OCCn2c(CC)nc(-c3ccccc3)cc2=O)cc1)C(=O)OCC (stereo not drawn) [Example 16] | 80 to 82 |  |
| CCCCCCCN(C(=O)Cn1c(CC)nc(-c2ccccc2)cc1=O)c1ccc(SC(C(=O)O)C(C)C)cc1 (stereo not drawn) [Example 26, 2-[4-(2-Ethyl-6-oxo-4-phenyl-1,6-dihydropyrimidin-1-ylmethyl(heptyl)carboxamido)phenylsulfanyl}-3-methyl butanoic acid] |  | Reduction in Blood Glucose Level (%) (C57BL/KsJ-db/db mice): 41%; Triglyceride Lowering (%) (C57BL/KsJ-db/db mice): 45% |
| CCCC(Nc1ccc(OCCn2c(CC)nc(-c3ccccc3)cc2=O)cc1)C(=O)OCC (stereo not drawn) [Example 24] | 40 |  |
| CCc1nc(-c2ccccc2)cc(=O)n1CCOc1ccc(SC(C(=O)O)C(C)C)cc1 (stereo not drawn) [Example 44] | 64 | Triglyceride Lowering (%) (Swiss albino mice; 3 mg/kg orally for 6 days): 36% |
| CCc1nc(-c2ccccc2)cc(=O)n1CCOc1ccc(OC(C)(C)C(=O)O)cc1 [Example 31] | 158 to 160 |  |
| CCCCCCCN(c1ccc(OCCn2c(CC)nc(-c3ccccc3)cc2=O)cc1)C(C)C(=O)OCC (stereo not drawn) [Example 25] | 88 to 89 |  |
| CCCCCCCN(C(=O)Cn1c(CC)nc(-c2ccccc2)cc1=O)c1ccc(S[C@@H](CC(C)C)C(=O)O)cc1 [Example 43] | 58 to 60 | Triglyceride Lowering (%) (Swiss albino mice; 3 mg/kg orally for 6 days): 44%; Reduction in Blood Glucose Level (%) (C57BL/KsJ-db/db mice): 39%; Triglyceride Lowering (%) (C57BL/KsJ-db/db mice): 43%; PPARα (hPPARα): 6.7; PPARγ (hPPARγ1): 2.2 |
| CCCCCCCN(C(=O)Cn1c(CC)nc(-c2ccccc2)cc1=O)c1ccc(OC(C)(CC)C(=O)O)cc1 (stereo not drawn) [Example 36] | 52 to 54 | PPARα (hPPARα): 7.5; PPARγ (hPPARγ1): 1.2 |
| CCc1nc(-c2ccccc2)cc(=O)n1CCNC(=O)c1ccc(OC(C)(C)C(=O)O)cc1 [Example 27] | 210 |  |
| CCc1nc(-c2ccccc2)cc(=O)n1CCNc1ccc(SC(CC)C(=O)O)cc1 (stereo not drawn) [Example 46] | 118 | PPARα (hPPARα): 6.5; PPARγ (hPPARγ1): 3.1 |
| CCc1nc(-c2ccccc2)cc(=O)n1CCNc1ccc(SC(CC(C)C)C(=O)O)cc1 (stereo not drawn) [Example 47] | 62 to 64 |  |
| CCc1nc(-c2ccccc2)cc(=O)n1CCSc1ccc(OCC(=O)O)cc1 [Example 41] | 164 to 166 |  |
| CCCCCCCN(C(=O)Cn1c(CC)nc(-c2ccccc2)cc1=O)c1ccc(OC(C)(C)C(=O)O)cc1 [Example 30] | 68 to 70 | Reduction in Blood Glucose Level (%) (C57BL/KsJ-db/db mice): 34%; Triglyceride Lowering (%) (C57BL/KsJ-db/db mice): 63% |
| CCCC(Oc1ccc(OCCn2c(CC)nc(-c3ccccc3)cc2=O)cc1)C(=O)O (stereo not drawn) [Example 32] | 190 to 192 |  |
